Experimental data taken from patent US20250236617A1, “BICYCLIC TETRAHYDROTHIAZEPINE DERIVATIVES” (Hoffmann-La Roche Inc., priority 2022, published 2025).

Legend:
primary human T-cells = assay: T-cell proliferation assay (CellTiter-Glo); format: cell-based; conditions: CD3 condition; for EC50: Homo sapiens, T-cell, 120 h, proliferation after 5 days, CellTiter-Glo, read-out: Tcell Proliferation CD3 EC50; for Emax proliferation (% activation): 5 days, 20 μM reference compound A1 = 100%
[1] = target: DGKalpha (hDGKalpha(1-735)-N-His) (Homo sapiens (Human), UniProt P23743); assay: In vitro DGK inhibition assay, ADP-Glo (in house), DGKalpha; format: biochemical; conditions: DLG liposomes, 25 μM ATP, 4 nM enzyme, 1 hour reaction
Chain of DGKalpha (hDGKalpha(1-735)-N-His) (P23743 whole entry): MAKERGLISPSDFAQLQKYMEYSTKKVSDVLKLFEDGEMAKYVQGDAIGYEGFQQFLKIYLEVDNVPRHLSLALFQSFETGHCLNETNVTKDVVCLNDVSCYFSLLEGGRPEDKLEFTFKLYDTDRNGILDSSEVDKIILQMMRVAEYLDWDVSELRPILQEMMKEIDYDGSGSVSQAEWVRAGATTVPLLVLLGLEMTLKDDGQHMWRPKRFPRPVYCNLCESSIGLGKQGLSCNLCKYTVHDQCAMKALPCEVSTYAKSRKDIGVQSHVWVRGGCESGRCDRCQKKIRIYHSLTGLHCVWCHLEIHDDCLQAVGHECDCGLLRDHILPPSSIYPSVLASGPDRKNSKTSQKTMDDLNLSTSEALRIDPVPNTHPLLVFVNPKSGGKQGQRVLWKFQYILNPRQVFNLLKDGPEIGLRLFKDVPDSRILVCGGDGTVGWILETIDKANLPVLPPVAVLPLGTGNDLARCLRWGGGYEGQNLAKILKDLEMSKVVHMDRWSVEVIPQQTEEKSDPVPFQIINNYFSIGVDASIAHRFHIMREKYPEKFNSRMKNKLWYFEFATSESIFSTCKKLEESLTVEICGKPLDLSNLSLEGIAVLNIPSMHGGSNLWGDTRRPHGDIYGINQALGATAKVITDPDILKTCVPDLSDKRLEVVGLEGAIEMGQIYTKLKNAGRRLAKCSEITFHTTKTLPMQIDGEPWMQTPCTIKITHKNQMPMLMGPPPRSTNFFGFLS

Row | SMILES | IC50 [1] [µM] | EC50 (primary human T-cells) [nM] | Emax proliferation (% activation) (primary human T-cells)
1 | CC(C)(C)c1cnnc(-c2cc3c(cc2F)S(=O)(=O)C[C@H](N)C(=O)N3Cc2ccc(Cl)cc2)n1 [Example 11, (3R)-3-amino-7-(5-tert-butyl-1,2,4-triazin-3-yl)-5-[(4-chlorophenyl)methyl]-8-fluoro-1,1-dioxo-2,3-dihydro-1λ6,5-benzothiazepin-4-one] |  | 90 | 
2 | CC(C)(C)c1cncc(-c2cc3c(cc2F)S(=O)(=O)C[C@H](N)C(=O)N3Cc2ccc(Cl)cc2)c1 [Example 2, (3R)-3-amino-7-(5-tert-butyl-3-pyridyl)-5-[(4-chlorophenyl)methyl]-8-fluoro-1,1-dioxo-2,3-dihydro-1λ6,5-benzothiazepin-4-one] |  | 81 | 

Now from value to molecule, other results behind:

Row | IC50 [1] [µM] | SMILES | EC50 (primary human T-cells) [nM] | Emax proliferation (% activation) (primary human T-cells)
3 | 3.06 | COc1ccc(-c2ccc(CN3C(=O)[C@@H](N)CS(=O)(=O)c4cc(F)c(-c5cnc(C)c(C)c5)cc43)cc2)cc1 [Example 28, (3R)-3-amino-7-(5,6-dimethyl-3-pyridyl)-8-fluoro-5-[[4-(4-methoxyphenyl)phenyl]methyl]-1,1-dioxo-2,3-dihydro-1λ6,5-benzothiazepin-4-one] | 81 | 155
4 | 17.2 | CC(C)(C#N)c1cncc(-c2cc3c(cc2F)S(=O)(=O)C[C@H](N)C(=O)N3Cc2ccc(-c3noc(C(F)(F)F)n3)cc2)c1 [Example 23, 2-[5-[(3R)-3-amino-8-fluoro-1,1,4-triketo-5-[4-[5-(trifluoromethyl)-1,2,4-oxadiazol-3-yl]benzyl]-2,3-dihydro-1λ6,5-benzothiazepin-7-yl]-3-pyridyl]-2-methyl-propionitrile] | 933 | 204
5 | 22.2 | CC(C)(c1cncc(-c2cc3c(cc2F)S(=O)(=O)C[C@H](N)C(=O)N3Cc2ccc(-c3noc(C(F)(F)F)n3)cc2)c1)S(C)(=O)=O [Example 25, (3R)-3-amino-8-fluoro-1,1-diketo-7-[5-(1-mesyl-1-methyl-ethyl)-3-pyridyl]-5-[4-[5-(trifluoromethyl)-1,2,4-oxadiazol-3-yl]benzyl]-2,3-dihydro-1λ6,5-benzothiazepin-4-one] | 526 | 120
